Laboratory results taken from US12162820B2 (TAIWANJ PHARMACEUTICALS CO., LTD., priority 2019, dated 2024).

Legend:
Assay type in all cases: biochemical
HDAC1 = target: T1, HDAC1 (Homo sapiens, UniProt Q13547); experiment: HDAC Inhibition Screening Assay (FLUOR DE LYS Fluorimetric Drug Discovery Kit), HDAC1; conditions: for inhibition at 2 µM: 2 μM compound; for inhibition at 10 µM: 10 μM compound; for inhibition at 50 µM: 50 μM compound
T1 construct: purchased Enzo Life Sciences
Outline: (§1)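 Recombinant HDAC1, HDAC2 or HDAC3 was incubated with an acetyl-lysine fluorogenic substrate, and a developer was then added to release the fluorophore. Compounds were tested at 2, 10 and 50 μM, with fluorescence read at 360 or 485 nm excitation and 460 or 530 nm emission. Activity was expressed as a percentage of basal control minus baseline.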

ATX (autotaxin) = target: T2, ATX (autotaxin) (Homo sapiens, UniProt Q13822); experiment: Autotaxin Inhibition Screening Assay (choline release from LPC, LPC-CR); conditions: for inhibition at 4 µM: 4 μM compound; for inhibition at 20 µM: 20 μM compound; for inhibition at 50 µM: 50 μM compound
T2 construct: purchased Cayman 10803
Outline: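 Released choline from 100 μM 14:0 LPC, detected via choline oxidase–HRP–homovanillic acid fluorescence (320/450 nm) kinetically over 90 min, reports activity of 20 ng ATX. Buffer: 50 mM Tris pH 8.0, 50 mM CaCl2, 0.01% Triton X-100; test compounds 4, 20, 50 μM; percent inhibition from blank-subtracted slopes relative to vehicle.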

HDAC2 = target: T3, HDAC2 (Homo sapiens, UniProt Q92769); experiment: HDAC Inhibition Screening Assay (FLUOR DE LYS Fluorimetric Drug Discovery Kit), HDAC2; conditions: for inhibition at 2 µM: 2 μM compound; for inhibition at 10 µM: 10 μM compound; for inhibition at 50 µM: 50 μM compound
T3 construct: purchased Enzo Life Sciences
T3 sequence (Q92769 whole entry): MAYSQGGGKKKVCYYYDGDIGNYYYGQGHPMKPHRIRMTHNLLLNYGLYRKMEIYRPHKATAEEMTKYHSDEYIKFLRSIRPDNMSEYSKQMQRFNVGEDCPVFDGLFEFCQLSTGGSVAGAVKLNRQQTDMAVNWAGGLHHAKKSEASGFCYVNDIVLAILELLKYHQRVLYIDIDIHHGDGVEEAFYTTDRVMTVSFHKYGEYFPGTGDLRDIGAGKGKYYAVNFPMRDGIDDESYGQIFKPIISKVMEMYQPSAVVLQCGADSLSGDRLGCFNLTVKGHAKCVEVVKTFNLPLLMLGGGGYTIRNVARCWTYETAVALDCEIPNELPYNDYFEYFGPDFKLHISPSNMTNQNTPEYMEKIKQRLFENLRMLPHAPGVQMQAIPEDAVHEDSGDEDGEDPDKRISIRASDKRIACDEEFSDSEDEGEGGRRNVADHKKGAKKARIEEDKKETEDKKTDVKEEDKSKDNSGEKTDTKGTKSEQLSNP
Outline: as §1

HDAC3 = target: T4, HDAC3 (Homo sapiens, UniProt O15379); experiment: HDAC Inhibition Screening Assay (FLUOR DE LYS Fluorimetric Drug Discovery Kit), HDAC3; conditions: for inhibition at 2 µM: 2 μM compound; for inhibition at 10 µM: 10 μM compound; for inhibition at 50 µM: 50 μM compound
T4 construct: purchased Enzo Life Sciences
T4 sequence (O15379 whole entry): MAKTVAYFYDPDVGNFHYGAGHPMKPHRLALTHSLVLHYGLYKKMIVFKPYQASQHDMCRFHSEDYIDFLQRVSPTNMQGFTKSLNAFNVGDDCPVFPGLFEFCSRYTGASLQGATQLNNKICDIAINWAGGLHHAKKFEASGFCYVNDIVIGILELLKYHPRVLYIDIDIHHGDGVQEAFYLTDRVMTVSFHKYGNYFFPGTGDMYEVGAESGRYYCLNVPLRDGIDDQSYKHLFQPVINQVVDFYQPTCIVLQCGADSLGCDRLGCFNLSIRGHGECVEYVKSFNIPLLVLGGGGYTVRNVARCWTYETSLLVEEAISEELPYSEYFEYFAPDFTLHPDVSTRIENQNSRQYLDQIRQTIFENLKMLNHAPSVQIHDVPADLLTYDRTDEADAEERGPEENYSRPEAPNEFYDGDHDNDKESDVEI
T4 sequence (O75376 395-489 partner limits assumed): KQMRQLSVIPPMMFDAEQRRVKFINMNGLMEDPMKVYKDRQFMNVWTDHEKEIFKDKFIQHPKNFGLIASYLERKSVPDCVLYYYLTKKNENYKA
Outline: as §1

T1 sequence (Q13547 whole entry): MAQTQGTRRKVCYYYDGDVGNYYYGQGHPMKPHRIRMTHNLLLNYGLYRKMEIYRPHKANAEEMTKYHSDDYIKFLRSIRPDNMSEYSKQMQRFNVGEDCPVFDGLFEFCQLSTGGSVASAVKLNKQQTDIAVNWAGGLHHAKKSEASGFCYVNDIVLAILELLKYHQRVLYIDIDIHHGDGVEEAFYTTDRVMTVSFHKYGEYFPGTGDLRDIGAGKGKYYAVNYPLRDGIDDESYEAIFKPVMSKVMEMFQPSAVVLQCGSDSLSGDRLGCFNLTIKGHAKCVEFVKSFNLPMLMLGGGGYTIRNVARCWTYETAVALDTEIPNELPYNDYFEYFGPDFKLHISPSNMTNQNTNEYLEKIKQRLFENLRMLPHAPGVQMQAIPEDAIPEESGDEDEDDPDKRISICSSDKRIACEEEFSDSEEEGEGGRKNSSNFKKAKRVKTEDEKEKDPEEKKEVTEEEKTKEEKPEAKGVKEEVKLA

Compound	inhibition at 2 µM (HDAC1)	inhibition at 10 µM (HDAC1)	inhibition at 50 µM (HDAC1)	inhibition at 4 µM (ATX (autotaxin))	inhibition at 20 µM (ATX (autotaxin))	inhibition at 50 µM (ATX (autotaxin))	inhibition at 2 µM (HDAC2)	inhibition at 10 µM (HDAC2)	inhibition at 50 µM (HDAC2)	inhibition at 2 µM (HDAC3)	inhibition at 10 µM (HDAC3)	inhibition at 50 µM (HDAC3)
O=C(/C=C/c1ccc(COc2ccc3c(c2)CCC(Cc2cc(C(F)(F)F)cc(C(F)(F)F)c2)C3=O)cc1)NO (stereo not drawn) [Compound 73, (E)-3-(4-(((6-(3,5-bis(trifluoromethyl)benzyl)-5-oxo-5,6,7,8-tetrahydronaphthalen-2-yl)oxy)methyl)phenyl)-N-hydroxyacrylamide]	< 50%	< 50%	< 50%	< 50%	< 50%	< 50%	< 50%	< 50%	< 50%	< 50%	< 50%	< 50%
O=C(CCCCCNC(=O)COc1ccc2c(c1)CC/C(=C\c1cc(C(F)(F)F)cc(C(F)(F)F)c1)C2=O)NO [Compound 74, (E)-6-(2-((6-(3,5-bis(trifluoromethyl)benzylidene)-5-oxo-5,6,7,8-tetra-hydronaphthalen-2-yl)oxy)acetamido)-N-hydroxyhexanamide]	< 50%	> 80%	> 80%	> 80%	> 80%	> 80%	50 to 80%	> 80%	> 80%	< 50%	> 80%	> 80%
Nc1cc(F)ccc1NC(=O)c1ccc(COc2ccc3c(c2)CC(Cc2cc(C(F)(F)F)cc(C(F)(F)F)c2)C3=O)cc1 (stereo not drawn) [Compound 76, N-(2-amino-4-fluorophenyl)-4-(((2-(3,5-bis(trifluoromethyl)benzyl)-1-oxo-2,3-dihydro-1H-inden-5-yl)oxy)methyl)benzamide]	< 50%	< 50%	< 50%	< 50%	< 50%	< 50%	< 50%	< 50%	< 50%	< 50%	< 50%	< 50%

Now from value to molecule:

inhibition at 2 µM (HDAC1)	inhibition at 10 µM (HDAC1)	inhibition at 50 µM (HDAC1)	inhibition at 4 µM (ATX (autotaxin))	inhibition at 20 µM (ATX (autotaxin))	inhibition at 50 µM (ATX (autotaxin))	inhibition at 2 µM (HDAC2)	inhibition at 10 µM (HDAC2)	inhibition at 50 µM (HDAC2)	inhibition at 2 µM (HDAC3)	inhibition at 10 µM (HDAC3)	inhibition at 50 µM (HDAC3)	Compound
< 50%	< 50%	< 50%	< 50%	< 50%	< 50%	< 50%	< 50%	< 50%	< 50%	< 50%	< 50%	Nc1cc(F)ccc1NC(=O)/C=C/c1ccc(COc2ccc3c(c2)CC/C(=C\c2cc(C(F)(F)F)cc(C(F)(F)F)c2)C3=O)cc1 [Compound 71]
< 50%	< 50%	50 to 80%	50 to 80%	50 to 80%	50 to 80%	< 50%	< 50%	50 to 80%	< 50%	< 50%	50 to 80%	O=C(/C=C/c1ccc(COc2ccc3c(c2)CC/C(=C\c2cc(C(F)(F)F)cc(C(F)(F)F)c2)C3=O)cc1)NO [Compound 72, (E)-3-(4-(((6-((E)-3,5-bis(trifluoromethyl)benzylidene)-5-oxo-5,6,7,8-tetrahydronaphthalen-2-yl)oxy)methyl)phenyl)-N-hydroxyacrylamide]
< 50%	< 50%	50 to 80%	50 to 80%	50 to 80%	50 to 80%	< 50%	< 50%	50 to 80%	< 50%	< 50%	50 to 80%	O=C(/C=C/c1ccc(CNC(=O)COc2ccc3c(c2)CC/C(=C\c2cc(C(F)(F)F)cc(C(F)(F)F)c2)C3=O)cc1)NO [Compound 75]
